ChEMBL document CHEMBL4507318, “Data for DCP probe BAY-985” (2021)

Assays:
[1] = biological target: Serine/threonine-protein kinase BRSK2 (Homo sapiens) (UniProt Q8IWQ3)
[2] = biological target: Peripheral plasma membrane protein CASK (Homo sapiens) (UniProt O14936)
[3] = biological target: Serine/threonine-protein kinase SBK1 (Homo sapiens) (UniProt Q52WX2)
[4] = biological target: Protein kinase C eta type (Homo sapiens) (UniProt P24723)
[5] = biological target: Phosphatidylinositol 5-phosphate 4-kinase type-2 beta (Homo sapiens) (UniProt P78356)
[6] = test system: Phosphatidylinositol 4,5-bisphosphate 3-kinase catalytic subunit alpha isoform (Homo sapiens), P42336 [E542K]
[7] = biological target: Platelet-derived growth factor receptor alpha (Homo sapiens) (UniProt P16234)
[8] = biological target: Insulin receptor-related protein (Homo sapiens) (UniProt P14616)
[9] = test system: Epidermal growth factor receptor (Homo sapiens), P00533 [L858R,T790M]
[10] = biological target: Dual specificity protein kinase CLK3 (Homo sapiens) (UniProt P49761)
[11] = biological target: Serine/threonine-protein kinase 38-like (Homo sapiens) (UniProt Q9Y2H1)
[12] = biological target: Ephrin type-B receptor 6 (Homo sapiens) (UniProt O15197)
[13] = biological target: Casein kinase I isoform gamma-2 (Homo sapiens) (UniProt P78368)
[14] = biological target: Serine/threonine-protein kinase SIK1 (Homo sapiens) (UniProt P57059)
Sequence of Serine/threonine-protein kinase SIK1 (Homo sapiens) (P57059 whole entry): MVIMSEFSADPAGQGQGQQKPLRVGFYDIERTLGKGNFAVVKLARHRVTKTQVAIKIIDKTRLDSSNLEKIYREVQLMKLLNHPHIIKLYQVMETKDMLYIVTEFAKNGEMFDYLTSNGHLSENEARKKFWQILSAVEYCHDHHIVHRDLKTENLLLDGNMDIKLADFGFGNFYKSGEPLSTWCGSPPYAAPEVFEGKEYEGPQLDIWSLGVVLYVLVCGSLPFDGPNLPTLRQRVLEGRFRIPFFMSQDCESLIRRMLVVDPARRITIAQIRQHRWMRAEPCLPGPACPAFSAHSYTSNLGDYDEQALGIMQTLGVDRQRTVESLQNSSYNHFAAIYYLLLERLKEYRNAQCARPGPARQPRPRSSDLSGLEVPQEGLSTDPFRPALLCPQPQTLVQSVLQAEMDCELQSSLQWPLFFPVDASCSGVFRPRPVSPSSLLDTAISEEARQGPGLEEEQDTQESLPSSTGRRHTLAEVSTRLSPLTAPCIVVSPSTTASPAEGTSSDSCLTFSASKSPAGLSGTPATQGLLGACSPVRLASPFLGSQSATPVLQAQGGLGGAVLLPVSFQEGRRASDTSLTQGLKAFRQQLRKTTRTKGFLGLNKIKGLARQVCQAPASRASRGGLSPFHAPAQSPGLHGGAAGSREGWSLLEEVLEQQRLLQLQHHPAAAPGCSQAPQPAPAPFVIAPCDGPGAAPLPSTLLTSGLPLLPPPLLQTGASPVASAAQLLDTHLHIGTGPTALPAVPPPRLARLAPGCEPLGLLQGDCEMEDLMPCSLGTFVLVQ

[15] = biological target: Histamine H3 receptor (Homo sapiens) (UniProt Q9Y5N1); details: Compound concentration 10.0 uM
[16] = biological target: Dual specificity protein kinase TTK (Homo sapiens) (UniProt P33981)
Sequence of Dual specificity protein kinase TTK (Homo sapiens) (P33981 whole entry): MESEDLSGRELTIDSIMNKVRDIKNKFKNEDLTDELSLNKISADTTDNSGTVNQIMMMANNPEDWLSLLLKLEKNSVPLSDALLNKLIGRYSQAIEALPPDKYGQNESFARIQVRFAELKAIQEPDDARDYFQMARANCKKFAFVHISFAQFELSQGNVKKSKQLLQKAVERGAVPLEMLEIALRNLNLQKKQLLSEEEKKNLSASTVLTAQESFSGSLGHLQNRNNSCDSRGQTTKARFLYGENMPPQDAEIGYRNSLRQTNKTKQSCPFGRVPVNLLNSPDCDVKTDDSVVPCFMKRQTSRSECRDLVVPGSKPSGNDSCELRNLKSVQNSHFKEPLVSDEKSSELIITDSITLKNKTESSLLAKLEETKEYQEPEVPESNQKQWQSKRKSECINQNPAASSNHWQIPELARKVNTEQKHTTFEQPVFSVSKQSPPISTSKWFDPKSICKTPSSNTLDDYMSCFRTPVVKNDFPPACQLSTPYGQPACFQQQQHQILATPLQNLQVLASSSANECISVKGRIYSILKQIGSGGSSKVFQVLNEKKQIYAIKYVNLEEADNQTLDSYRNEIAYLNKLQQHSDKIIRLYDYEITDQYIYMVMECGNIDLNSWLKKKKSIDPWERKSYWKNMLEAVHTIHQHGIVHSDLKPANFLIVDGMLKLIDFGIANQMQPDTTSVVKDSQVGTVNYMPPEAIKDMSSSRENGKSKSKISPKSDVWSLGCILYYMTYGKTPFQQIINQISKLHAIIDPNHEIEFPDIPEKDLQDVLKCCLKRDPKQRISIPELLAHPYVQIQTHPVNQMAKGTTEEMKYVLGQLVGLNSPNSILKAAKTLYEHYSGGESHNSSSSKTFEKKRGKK

[17] = biological target: Serine/threonine-protein kinase Nek2 (Homo sapiens) (UniProt P51955)
[18] = biological target: Activin receptor type-1-like (Homo sapiens) (UniProt P37023)
[19] = biological target: Serine/threonine-protein kinase D3 (Homo sapiens) (UniProt O94806)
[20] = biological target: Serine/threonine-protein kinase DCLK3 (Homo sapiens) (UniProt Q9C098)
Sequence of Serine/threonine-protein kinase DCLK3 (Homo sapiens) (Q9C098 whole entry): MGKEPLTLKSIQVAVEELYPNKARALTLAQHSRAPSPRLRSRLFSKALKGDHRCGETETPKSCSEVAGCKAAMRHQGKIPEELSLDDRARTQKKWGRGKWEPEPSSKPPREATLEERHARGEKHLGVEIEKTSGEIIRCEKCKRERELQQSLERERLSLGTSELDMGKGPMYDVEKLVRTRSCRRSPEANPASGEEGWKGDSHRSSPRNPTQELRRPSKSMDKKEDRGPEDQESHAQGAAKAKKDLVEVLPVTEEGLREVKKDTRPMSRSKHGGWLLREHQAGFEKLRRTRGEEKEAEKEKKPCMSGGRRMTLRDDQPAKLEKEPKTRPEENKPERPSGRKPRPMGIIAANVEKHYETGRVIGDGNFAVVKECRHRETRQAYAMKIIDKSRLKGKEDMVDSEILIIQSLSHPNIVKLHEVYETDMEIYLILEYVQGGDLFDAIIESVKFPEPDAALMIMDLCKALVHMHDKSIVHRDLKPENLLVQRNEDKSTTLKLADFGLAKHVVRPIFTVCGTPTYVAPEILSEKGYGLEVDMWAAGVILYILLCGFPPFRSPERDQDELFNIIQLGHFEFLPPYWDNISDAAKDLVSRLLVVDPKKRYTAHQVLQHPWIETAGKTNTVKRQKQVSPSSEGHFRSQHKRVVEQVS

[21] = biological target: Dual specificity mitogen-activated protein kinase kinase 7 (Homo sapiens) (UniProt O14733)
[22] = biological target: Serine/threonine-protein kinase MARK2 (Homo sapiens) (UniProt Q7KZI7)
[23] = biological target: Serine/threonine-protein kinase 33 (Homo sapiens) (UniProt Q9BYT3)
[24] = biological target: 5-hydroxytryptamine receptor 6 (Homo sapiens) (UniProt P50406); details: Compound concentration 10.0 uM
[25] = test system: Serine/threonine-protein kinase B-raf (Homo sapiens), P15056 [V600E]
[26] = biological target: Serine/threonine-protein kinase MRCK beta (Homo sapiens) (UniProt Q9Y5S2)
[27] = biological target: Tyrosine-protein kinase TXK (Homo sapiens) (UniProt P42681)
Sequence of Tyrosine-protein kinase TXK (Homo sapiens) (P42681 whole entry): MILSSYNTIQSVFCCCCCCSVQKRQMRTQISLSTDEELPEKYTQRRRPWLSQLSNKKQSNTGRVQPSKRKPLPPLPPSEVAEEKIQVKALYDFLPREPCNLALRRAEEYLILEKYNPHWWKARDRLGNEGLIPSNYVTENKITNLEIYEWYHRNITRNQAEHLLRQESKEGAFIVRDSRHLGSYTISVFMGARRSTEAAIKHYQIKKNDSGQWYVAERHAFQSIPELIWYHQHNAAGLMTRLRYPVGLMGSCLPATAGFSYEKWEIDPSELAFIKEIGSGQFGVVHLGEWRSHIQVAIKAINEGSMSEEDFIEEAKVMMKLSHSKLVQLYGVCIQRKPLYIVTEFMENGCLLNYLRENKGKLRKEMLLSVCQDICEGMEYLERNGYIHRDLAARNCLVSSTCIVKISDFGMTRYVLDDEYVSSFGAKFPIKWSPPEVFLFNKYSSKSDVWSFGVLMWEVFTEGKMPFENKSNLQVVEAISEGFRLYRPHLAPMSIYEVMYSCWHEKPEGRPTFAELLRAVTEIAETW

[28] = test system: Epidermal growth factor receptor (Homo sapiens), P00533 [L858R]
[29] = biological target: Calcium/calmodulin-dependent protein kinase type 1 (Homo sapiens) (UniProt Q14012)
[30] = biological target: TGF-beta receptor type-1 (Homo sapiens) (UniProt P36897)
[31] = biological target: Dual specificity mitogen-activated protein kinase kinase 3 (Homo sapiens) (UniProt P46734)
[32] = biological target: MAP/microtubule affinity-regulating kinase 4 (Homo sapiens) (UniProt Q96L34)
[33] = biological target: Serine/threonine-protein kinase Nek6 (Homo sapiens) (UniProt Q9HC98)
[34] = biological target: cGMP-dependent protein kinase 2 (Homo sapiens) (UniProt Q13237)
Sequence of cGMP-dependent protein kinase 2 (Homo sapiens) (Q13237 whole entry): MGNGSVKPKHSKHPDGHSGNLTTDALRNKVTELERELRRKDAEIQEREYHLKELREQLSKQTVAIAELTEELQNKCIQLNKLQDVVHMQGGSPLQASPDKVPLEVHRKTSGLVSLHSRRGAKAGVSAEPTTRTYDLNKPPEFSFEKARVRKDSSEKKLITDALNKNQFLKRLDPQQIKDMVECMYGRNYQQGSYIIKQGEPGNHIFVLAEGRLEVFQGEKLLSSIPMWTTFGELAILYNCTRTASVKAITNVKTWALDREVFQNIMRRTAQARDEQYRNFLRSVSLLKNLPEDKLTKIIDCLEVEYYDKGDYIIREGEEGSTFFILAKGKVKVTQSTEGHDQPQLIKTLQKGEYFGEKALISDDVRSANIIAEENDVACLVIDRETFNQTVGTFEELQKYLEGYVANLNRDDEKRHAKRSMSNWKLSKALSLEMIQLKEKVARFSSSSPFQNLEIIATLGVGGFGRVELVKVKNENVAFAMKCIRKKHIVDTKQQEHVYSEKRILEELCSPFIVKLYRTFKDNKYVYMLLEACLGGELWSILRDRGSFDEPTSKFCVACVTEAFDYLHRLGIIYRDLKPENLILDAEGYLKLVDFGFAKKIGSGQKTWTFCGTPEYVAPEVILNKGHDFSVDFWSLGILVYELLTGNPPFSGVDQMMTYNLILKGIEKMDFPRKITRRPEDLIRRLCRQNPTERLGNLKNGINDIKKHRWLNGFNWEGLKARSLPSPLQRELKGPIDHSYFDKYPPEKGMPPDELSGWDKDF

[35] = biological target: Tyrosine-protein kinase receptor TYRO3 (Homo sapiens) (UniProt Q06418)
[36] = biological target: Protein-tyrosine kinase 2-beta (Homo sapiens) (UniProt Q14289)
Sequence of Protein-tyrosine kinase 2-beta (Homo sapiens) (Q14289 whole entry, looked up): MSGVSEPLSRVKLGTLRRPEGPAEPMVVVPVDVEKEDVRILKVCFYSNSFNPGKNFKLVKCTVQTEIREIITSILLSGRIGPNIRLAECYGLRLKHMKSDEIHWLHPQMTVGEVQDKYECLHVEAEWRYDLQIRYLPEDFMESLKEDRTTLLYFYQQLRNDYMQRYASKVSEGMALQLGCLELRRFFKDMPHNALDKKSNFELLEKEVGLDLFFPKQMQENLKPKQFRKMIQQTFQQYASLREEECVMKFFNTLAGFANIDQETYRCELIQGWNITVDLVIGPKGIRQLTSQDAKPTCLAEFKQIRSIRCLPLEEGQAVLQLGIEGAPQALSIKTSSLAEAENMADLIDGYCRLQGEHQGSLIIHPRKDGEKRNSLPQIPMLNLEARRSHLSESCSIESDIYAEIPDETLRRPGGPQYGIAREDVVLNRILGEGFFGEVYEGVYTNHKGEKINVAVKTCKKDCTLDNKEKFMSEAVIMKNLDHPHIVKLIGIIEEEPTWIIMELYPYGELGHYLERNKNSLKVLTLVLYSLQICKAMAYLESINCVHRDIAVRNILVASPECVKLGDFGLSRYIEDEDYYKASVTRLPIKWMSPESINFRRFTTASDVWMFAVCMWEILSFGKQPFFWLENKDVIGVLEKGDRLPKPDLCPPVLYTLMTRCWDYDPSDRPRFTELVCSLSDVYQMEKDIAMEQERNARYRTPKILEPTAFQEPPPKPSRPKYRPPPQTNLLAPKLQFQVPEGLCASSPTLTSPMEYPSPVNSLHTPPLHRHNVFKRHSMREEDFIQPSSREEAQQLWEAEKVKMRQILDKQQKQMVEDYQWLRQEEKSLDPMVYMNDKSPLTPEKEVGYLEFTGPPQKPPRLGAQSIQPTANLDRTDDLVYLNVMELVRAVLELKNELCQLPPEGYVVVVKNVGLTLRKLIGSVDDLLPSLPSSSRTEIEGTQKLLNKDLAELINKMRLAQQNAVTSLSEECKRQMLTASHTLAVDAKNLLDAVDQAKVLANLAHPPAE

[37] = biological target: Serine/threonine-protein kinase Sgk1 (Homo sapiens) (UniProt O00141)
[38] = biological target: Tyrosine-protein kinase receptor Tie-1 (Homo sapiens) (UniProt P35590)
[39] = biological target: Inhibitor of nuclear factor kappa-B kinase subunit alpha (Homo sapiens) (UniProt O15111)
[40] = biological target: Wee1-like protein kinase (Homo sapiens) (UniProt P30291)
[41] = biological target: Tyrosine-protein kinase JAK3 (Homo sapiens) (UniProt P52333)
[42] = biological target: Casein kinase II subunit alpha (Homo sapiens) (UniProt P68400)
[43] = biological target: Aurora kinase C (Homo sapiens) (UniProt Q9UQB9)
[44] = biological target: Calcium/calmodulin-dependent protein kinase type II subunit beta (Homo sapiens) (UniProt Q13554)
[45] = biological target: Mitogen-activated protein kinase 11 (Homo sapiens) (UniProt Q15759)
[46] = Compound concentration 1000.0 nM
[47] = Compound concentration 100.0 nM

Sequence of Serine/threonine-protein kinase SBK1 (Homo sapiens) (Q52WX2 whole entry): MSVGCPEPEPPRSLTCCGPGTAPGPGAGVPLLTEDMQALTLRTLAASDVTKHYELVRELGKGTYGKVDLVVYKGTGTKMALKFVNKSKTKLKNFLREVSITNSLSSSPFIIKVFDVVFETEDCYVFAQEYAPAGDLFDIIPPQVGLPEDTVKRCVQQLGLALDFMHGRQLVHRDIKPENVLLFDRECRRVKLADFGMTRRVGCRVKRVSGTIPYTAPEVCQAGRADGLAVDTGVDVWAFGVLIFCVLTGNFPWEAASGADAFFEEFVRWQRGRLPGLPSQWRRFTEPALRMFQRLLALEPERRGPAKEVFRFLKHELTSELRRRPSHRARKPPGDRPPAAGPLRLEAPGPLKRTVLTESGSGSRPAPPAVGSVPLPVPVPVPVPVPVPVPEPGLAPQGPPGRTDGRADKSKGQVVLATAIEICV

## CN(C)c1ncnc(-c2ccc3nc(Nc4cc(CN5CCN(C(=O)CC(F)(F)F)CC5)ccn4)[nH]c3c2)c1Cl [BAY-440]
[1]; [46]
  residual activity: 100%
[2]; [46]
  residual activity: 89%
[3]; [46]
  residual activity: 71%
[4]; [46]
  residual activity: 100%
[5]; [46]
  residual activity: 52%
[6]; [46]
  residual activity: 29%
[7]; [46]
  residual activity: 61%
[8]; [46]
  residual activity: 95%
[9]; [46]
  residual activity: 82%
[10]; [46]
  residual activity: 100%
[11]; [46]
  residual activity: 74%
[12]; [46]
  residual activity: 69%
[13]; [46]
  residual activity: 100%
[14]; [46]
  residual activity: 94%
[15]
  inhibition: 4.68%
[16]; [46]
  residual activity: 100%
[17]; [46]
  residual activity: 86%
[18]; [46]
  residual activity: 94%
[19]; [46]
  residual activity: 88%
[20]; [46]
  residual activity: 92%
[21]; [46]
  residual activity: 100%
[22]; [46]
  residual activity: 68%
[23]; [46]
  residual activity: 100%
[24]
  inhibition: 12.4%
[25]; [46]
  residual activity: 84%
[26]; [46]
  residual activity: 96%
[27]; [46]
  residual activity: 95%
[28]; [46]
  residual activity: 100%
[29]; [46]
  residual activity: 100%
[30]; [46]
  residual activity: 100%
[31]; [46]
  residual activity: 73%
[32]; [46]
  residual activity: 100%
[33]; [46]
  residual activity: 98%
[34]; [46]
  residual activity: 40%
[35]; [46]
  residual activity: 100%
[36]; [46]
  residual activity: 85%
[37]; [46]
  residual activity: 37%
[38]; [46]
  residual activity: 66%
[39]; [46]
  residual activity: 69%
[40]; [46]
  residual activity: 100%
[41]; [46]
  residual activity: 71%
[42]; [46]
  residual activity: 80%
[43]; [46]
  residual activity: 100%
[44]; [46]
  residual activity: 100%
[45]; [46]
  residual activity: 97%

## C[C@H](c1ccnc(Nc2nc3ccc(-c4cc(N(C)C)ncn4)cc3[nH]2)c1)N1CCN(C(=O)CC(F)(F)F)CC1 [BAY-985]
[1]; [47]
  residual activity: 100%
[2]; [47]
  residual activity: 100%
[3]; [47]
  residual activity: 85%
[4]; [47]
  residual activity: 84%
[5]; [47]
  residual activity: 75%
[6]; [47]
  residual activity: 53%
[7]; [47]
  residual activity: 99%
[8]; [47]
  residual activity: 100%
[9]; [47]
  residual activity: 100%
[10]; [47]
  residual activity: 100%
[11]; [47]
  residual activity: 65%
[12]; [47]
  residual activity: 100%
[13]; [47]
  residual activity: 96%
[14]; [47]
  residual activity: 96%
[15]
  inhibition: -3.83%
[16]; [47]
  residual activity: 82%
[17]; [47]
  residual activity: 100%
[18]; [47]
  residual activity: 100%
[19]; [47]
  residual activity: 100%
[20]; [47]
  residual activity: 100%
[21]; [47]
  residual activity: 92%
[22]; [47]
  residual activity: 100%
[23]; [47]
  residual activity: 100%
[24]
  inhibition: -4.38%
[25]; [47]
  residual activity: 100%
[26]; [47]
  residual activity: 100%
[27]; [47]
  residual activity: 96%
[28]; [47]
  residual activity: 95%
[29]; [47]
  residual activity: 88%
[30]; [47]
  residual activity: 85%
[31]; [47]
  residual activity: 97%
[32]; [47]
  residual activity: 100%
[33]; [47]
  residual activity: 83%
[34]; [47]
  residual activity: 94%
[35]; [47]
  residual activity: 96%
[36]; [47]
  residual activity: 91%
[37]; [47]
  residual activity: 94%
[38]; [47]
  residual activity: 85%
[39]; [47]
  residual activity: 95%
[40]; [47]
  residual activity: 96%
[41]; [47]
  residual activity: 83%
[42]; [47]
  residual activity: 100%
[43]; [47]
  residual activity: 100%
[44]; [47]
  residual activity: 92%
[45]; [47]
  residual activity: 89%
